Laboratory results published in ChEMBL document CHEMBL1926505, “Lanostane and hopane triterpenes from the entomopathogenic fungus Hypocrella sp. BCC 14524” (J Nat Prod, 2011).
Values after ≈ are worked out from the molar mass of the structure shown. Active and inactive are the calls of the source. The calls are words filed in the database; no cut-off is given here.

Assays:
MCF7 = assay: Cytotoxicity against human MCF7 cells by resazurin microplate assay; type: functional, cell-based
NCI-H187 = assay: Cytotoxicity against human NCI-H187 cells by resazurin microplate assay; type: functional, cell-based
Vero = assay: Cytotoxicity against african green monkey Vero cells by green fluorescent protein microplate assay; type: cell-based; conditions: chlorocebus sabaeus
KB = assay: Cytotoxicity against human KB cells by resazurin microplate assay; type: functional, cell-based
Plasmodium falciparum = assay: Antimalarial activity against multidrug-resistant Plasmodium falciparum K1 by microculture radioisotope technique; type: functional, organism-based
[1] = system: Mycobacterium tuberculosis; assay: Antimycobacterial activity against Mycobacterium tuberculosis H37Ra by green fluorescent protein microplate assay; type: functional

Compound	Activity (MCF7)	Activity (NCI-H187)	Activity (Vero)	Activity (KB)	Activity (Plasmodium falciparum)	Activity [1]	IC50 (Vero) [µM]	IC50 (Plasmodium falciparum) [µM]	MIC [1] [µg/mL]	further results
C=C(C)[C@H]1CC[C@]2(C)[C@H]3CC[C@@H]4[C@@]5(C)CC[C@H](OC(C)=O)C(C)(C)[C@@H]5CC[C@@]4(C)[C@]3(C)[C@@H](O)C[C@@H]12	inactive	inactive	Non-toxic	inactive	inactive	inactive				
CC(C)(O)[C@H]1CC[C@]2(C)[C@H]3CC[C@@H]4[C@@]5(C)CC[C@H](O)C(C)(C)[C@@H]5C[C@H](O)[C@@]4(C)[C@]3(C)[C@@H](O)C[C@@H]12							47	12	50 (≈ 105 µM)	IC50 (MCF7): > 105 µM; IC50 (NCI-H187): 12 µM; IC50 (KB): 28 µM
CC(=O)O[C@H]1CC[C@]2(C)[C@H]3CC[C@@H]4[C@@]5(C)CC[C@H](C(C)(C)O)[C@@H]5C[C@H](O)[C@@]4(C)[C@]3(C)[C@@H](O)C[C@H]2C1(C)C							13	5.2	6.25 (≈ 12 µM)	IC50 (MCF7): > 96 µM; IC50 (NCI-H187): 11 µM; IC50 (KB): 56 µM
CC(C)(O)[C@H]1CC[C@]2(C)[C@H]3CC[C@@H]4[C@@]5(C)CC[C@H](O)C(C)(C)[C@@H]5CC[C@@]4(C)[C@]3(C)[C@@H](O)C[C@@H]12			Non-toxic						> 50	
CC(=O)O[C@H]1CC[C@]2(C)[C@H]3CC[C@@H]4[C@@]5(C)CC[C@H](C(C)(C)O)[C@@H]5C[C@H](O)[C@@]4(C)[C@]3(C)CC[C@H]2C1(C)C			Non-toxic						12.5 (≈ 24.9 µM)	
CC(C)(O)[C@H]1CC[C@]2(C)[C@H]3CC[C@@H]4[C@@]5(C)CCCC(C)(C)[C@@H]5CC[C@@]4(C)[C@]3(C)[C@@H](O)C[C@@H]12			Non-toxic						12.5 (≈ 28.1 µM)	
C=C(C)[C@H]1CC[C@]2(C)[C@H]3CC[C@@H]4[C@@]5(C)CCCC(C)(C)[C@@H]5C[C@H](O)[C@@]4(C)[C@]3(C)[C@@H](O)C[C@@H]12 (relative stereo)	inactive	inactive	Non-toxic	inactive	inactive	inactive				
C[C@H]1[C@@H](O)O[C@@H]2O[C@@]3(C)CC[C@H]4[C@H](C)CC[C@@H]1[C@@]24OO3 [ARTENIMOL]								0.0011		
Cc1c2ccncc2c(C)c2c1[nH]c1ccccc12 [ELLIPTECINE]							9.8			
CC(C)(O)[C@H]1CC[C@H]([C@H]2CC[C@@]3(C)C4=CC[C@H]5C(C)(C)[C@@H](O)CC[C@]5(C)C4=CC[C@]23C)CO1 [HYPOCRELLOL A]	inactive	inactive	Non-toxic	inactive	inactive	inactive				
CC(=O)O[C@H]1CC[C@]2(C)C3=CC[C@]4(C)[C@@H]([C@H]5CC[C@H](C(C)(C)O)OC5)CC[C@@]4(C)C3=CC[C@H]2C1(C)C [HYPOCRELLOL B]	inactive	inactive	Non-toxic	inactive	inactive	inactive				
CC(=O)O[C@H]1CC[C@]2(C)C3=C(CC[C@H]2C1(C)C)[C@]1(C)CC[C@H]([C@H]2CC[C@H](C(C)(C)O)OC2)[C@@]1(C)C[C@H]3O [HYPOCRELLOL D]							30	8	50 (≈ 96.8 µM)	IC50 (MCF7): 38 µM; IC50 (NCI-H187): 18 µM; IC50 (KB): 15 µM
NNC(=O)c1ccncc1 [ISONIAZID]									0.0234 (≈ 0.171 µM)	
